pIC50: −log10 of the molar value.
Molecular target: T1, Neprilysin (Rattus norvegicus, UniProt P07861)
T1 sequence (P07861 whole entry): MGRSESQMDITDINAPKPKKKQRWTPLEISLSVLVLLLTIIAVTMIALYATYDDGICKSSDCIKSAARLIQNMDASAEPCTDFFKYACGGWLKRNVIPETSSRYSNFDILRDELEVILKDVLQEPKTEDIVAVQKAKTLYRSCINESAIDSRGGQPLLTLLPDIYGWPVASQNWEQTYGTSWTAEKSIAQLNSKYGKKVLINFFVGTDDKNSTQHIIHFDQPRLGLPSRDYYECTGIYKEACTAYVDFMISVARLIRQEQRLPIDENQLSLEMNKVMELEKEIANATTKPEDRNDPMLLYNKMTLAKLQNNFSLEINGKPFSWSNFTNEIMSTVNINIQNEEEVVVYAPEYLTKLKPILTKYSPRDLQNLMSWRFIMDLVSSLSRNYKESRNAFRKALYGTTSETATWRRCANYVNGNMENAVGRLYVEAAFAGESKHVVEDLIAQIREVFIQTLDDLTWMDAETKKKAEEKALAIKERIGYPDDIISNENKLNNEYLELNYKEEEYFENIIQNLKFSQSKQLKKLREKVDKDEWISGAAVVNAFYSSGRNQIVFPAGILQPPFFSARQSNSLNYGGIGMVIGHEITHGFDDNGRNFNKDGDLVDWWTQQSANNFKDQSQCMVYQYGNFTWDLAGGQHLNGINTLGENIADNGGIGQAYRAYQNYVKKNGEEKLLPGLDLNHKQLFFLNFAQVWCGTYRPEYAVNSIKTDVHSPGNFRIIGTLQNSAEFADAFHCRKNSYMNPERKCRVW
Assay: In vitro inhibitory activity against neutral endopeptidase (NEP)

pIC50 | Compound
7.82 | O=C(O)C[C@H](Cc1ccc(-c2ccccc2)cc1)NCP(=O)(O)O
5.72 | O=C(O)CCNC(=O)[C@H](Cc1ccc(-c2ccccc2)cc1)NCP(=O)(O)O
8.85 | O=C(Nc1nn[nH]n1)[C@H](Cc1ccc(-c2ccccc2)cc1)NCP(=O)(O)O
< 6.00 | O=C(O)[C@H](Cc1ccc(-c2cccnc2)cc1)NCP(=O)(O)O
7.85 | COc1cc(C[C@H](NCP(=O)(O)O)C(=O)O)ccc1-c1ccccc1
5.89 | NC(=O)[C@H](Cc1ccc(-c2ccccc2)cc1)NCP(=O)(O)O
6.19 | O=C(O)CC[C@H](Cc1ccc(-c2ccccc2)cc1)NCP(=O)(O)O
6.51 | O=C(NCc1ccccc1)[C@H](Cc1ccc(-c2ccccc2)cc1)NCP(=O)(O)O
7.49 | O=C(O)/C=C/[C@H](Cc1ccc(-c2ccccc2)cc1)NCP(=O)(O)O
< 6.00 | O=C(O)[C@H](Cc1ccccc1)NCP(=O)(O)O
< 6.00 | O=C(O)C(Cc1cccc(-c2ccccc2)c1)NCP(=O)(O)O (configuration not stated)
< 5.00 | O=C(O)[C@H](Cc1ccc(-c2ccccc2)cc1)NCCP(=O)(O)O
6.63 | Cc1ccc(-c2ccc(C[C@H](NCP(=O)(O)O)C(=O)O)cc2)cc1

Further lines, the molecule ahead of its results:

Compound | pIC50
O=P(O)(O)CN[C@@H](Cc1ccccc1)c1nnn[nH]1 | 7.59
O=P(O)(O)CN[C@@H](CCc1ccccc1)c1nnn[nH]1 | < 5.00
O=P(O)(O)CN[C@@H](Cc1ccc2ccccc2c1)c1nnn[nH]1 | 6.44
CN(CP(=O)(O)O)[C@@H](Cc1ccc(-c2ccccc2)cc1)c1nnn[nH]1 | 6.28
CC(C)Oc1ccc(C[C@H](NCP(=O)(O)O)c2nnn[nH]2)cc1 | 7.82
O=C(O)C(Cc1ccccc1-c1ccccc1)NCP(=O)(O)O (configuration not stated) | < 6.00
COc1cc(C[C@H](NCP(=O)(O)O)c2nnn[nH]2)ccc1-c1ccccc1 | 8.82
O=P(O)(O)CN[C@@H](Cc1ccc(-c2ccccc2)cc1)c1nnnn1Cc1ccccc1 | < 6.00
O=P(O)(O)CNC(c1nnn[nH]1)C(c1ccccc1)c1ccccc1 (configuration not stated) | < 6.00

— ChEMBL document CHEMBL1128900, “Non-peptidic inhibitors of neutral endopeptidase 24.11 1. Discovery and optimization of potency” (Bioorg Med Chem Lett, 1995)
